Read-outs that look alike come from different tables or passages of the source.
Key:
Type in all cases: cell-based
MYC = molecular target: T1, MYC (Homo sapiens, UniProt P01106); assay: MYC protein level in PC3 cells by western blot, 24 hr; conditions: Actin control; for remaining activity at 10 µM: read-out: Relative MYC protein at 10 μM (%, PC3 24 h)
T1 construct: endogenous in cells; host or cells: PC3 cells
Procedure: (§1) Table 2. Biological data of selected compounds. For IC50 determination. PC3 and PC12 cells were treated with increasing concentrations of the indicated compounds for 72 hrs and cell viability assessed using CellTitreGlo Assay (Promega). For MYC and ATF4 protein level determination. PC3 cells were treated with the indicated compounds for 24 hr sand cell lysates processed for western blot with MYC and ATF4 antibodies using Actin as a control. Quantification analyses were performed by Biorad ChemiDoc Imager and Bio-Rad Image Lab software.

ATF4 = ATF4 protein level in PC3 cells by western blot, 24 hr; conditions: Actin control; for fold induction at 10 µM: Homo sapiens, PC-3, PC3, 24 h, read-out: Relative ATF4 protein at 10 μM (fold change, PC3 24 h)
Procedure: as §1

PC3 cells = assay: PC3 cell viability, CellTitreGlo Assay, 72 hrs; conditions: Homo sapiens, PC-3
Procedure: as §1

T1 sequence (P01106 whole entry): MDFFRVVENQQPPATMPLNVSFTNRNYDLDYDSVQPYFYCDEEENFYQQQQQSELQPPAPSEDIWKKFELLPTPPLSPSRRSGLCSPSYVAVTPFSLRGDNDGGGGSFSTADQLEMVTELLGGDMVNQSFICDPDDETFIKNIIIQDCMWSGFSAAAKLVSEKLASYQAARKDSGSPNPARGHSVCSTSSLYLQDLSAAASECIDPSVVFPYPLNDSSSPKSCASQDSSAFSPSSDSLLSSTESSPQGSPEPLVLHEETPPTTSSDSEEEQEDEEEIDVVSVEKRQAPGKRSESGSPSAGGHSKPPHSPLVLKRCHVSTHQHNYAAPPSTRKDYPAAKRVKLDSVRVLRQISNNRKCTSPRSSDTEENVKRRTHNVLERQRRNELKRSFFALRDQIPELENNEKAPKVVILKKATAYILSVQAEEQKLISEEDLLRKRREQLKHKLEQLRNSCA

| Compound | remaining activity at 10 µM (MYC; PC-3, 24 h, PC3, 24 h) [%] | fold induction at 10 µM (ATF4) | IC50 (PC3 cells) [µM] | remaining activity at 10 µM (MYC; PC-3, PC3, 24 h) [%] | Relative MYC protein at 10 μM (%, PC3 24 h) (MYC) [%] | Relative ATF4 protein at 10 μM (fold change, PC3 24 h) (ATF4) [fold change] |
| --- | --- | --- | --- | --- | --- | --- |
| Cc1ncsc1-c1ccc(CNC(=O)[C@@H]2C[C@@H](O)CN2C(=O)[C@@H](NCCOCCOCCCCCOc2ccc(-c3cc(C(F)(F)F)nn3C)c(O)c2-c2ccc(Cl)c(C(F)(F)F)c2)C(C)(C)C)cc1 [NUCC-0226265] | 115 | 2.2 |  |  |  |  |
| CC(C)Cc1ccc(C(C)Oc2ccc(-c3cc(C(F)(F)F)cn3C)c(O)c2-c2ccc(Cl)c(C(F)(F)F)c2)cc1 (centres unmarked) [NUCC-0226438] | 52.3 | 3.7 | 5.3 |  |  |  |
| Cn1nc(C(F)(F)F)cc1-c1ccc(CCc2ccc(Cl)cc2)c(-c2ccc(Cl)c(C(F)(F)F)c2)c1O [NUCC-0226574] | 43.7 | 12 | 3.59 |  |  |  |
| Cn1nc(C(F)(F)F)cc1-c1ccc(N(CCCOCCC(=O)NCCOCCOCCNc2ccc3c(c2)C(=O)N(C2CCC(=O)NC2=O)C3=O)C(=O)c2ccc(Cl)c(C(F)(F)F)c2)cc1O (centres unmarked) [NUCC-0226293] | 18.4 | 3.6 | 4.7 |  |  |  |
| Cn1nc(C(F)(F)F)cc1-c1ccc(N)c(-c2ccc(Cl)c(C(F)(F)F)c2)c1O [NUCC-0226520] | 67.5 | 1.1 | 12.7 |  |  |  |
| Cc1ncsc1-c1ccc(CNC(=O)[C@@H]2C[C@@H](O)CN2C(=O)[C@@H](NCCOCCNC(=O)CCOCCCOc2ccc(-c3cc(C(F)(F)F)nn3C)c(O)c2-c2ccc(Cl)c(C(F)(F)F)c2)C(C)(C)C)cc1 [NUCC-0226303] | 24 | 1.6 | 10.9 |  |  |  |
| Cc1ccc([C@@H](C)Oc2ccc(-c3cc(C(F)(F)F)nn3C)c(O)c2-c2ccc(Cl)c(C(F)(F)F)c2)cc1 [NUCC-0226436] | 30.3 | 11.8 | 3.4 |  |  |  |
| Cn1nc(C(F)(F)F)cc1-c1ccc(OCc2ccc(OCCOCCNC(=O)COc3cccc4c3C(=O)N(C3CCC(=O)NC3=O)C4=O)cc2)c(-c2ccc(Cl)c(C(F)(F)F)c2)c1O (centres unmarked) [NUCC-0226302] | 79.4 | 2 |  |  |  |  |
| COc1ccc(-c2c(Cl)c(C(F)(F)F)nn2C)c(O)c1-c1ccc(Cl)c(C(F)(F)F)c1 [NUCC-0226501] | 59.4 | 9.3 | 4.6 |  |  |  |
| Cc1ccc([C@H](C)Oc2ccc(-c3cc(C(F)(F)F)nn3C)c(O)c2-c2ccc(Cl)c(C(F)(F)F)c2)cc1 [NUCC-0226435] | 47.4 | 4.7 | 5.4 |  |  |  |
| Cn1nc(C(N)=O)cc1-c1cc(Cl)c(COc2ccc(Cl)cc2)c(-c2ccc(Cl)c(C(F)(F)F)c2)c1O [NUCC-0227066] | 84.2 | 3.9 | 8.53 |  |  |  |
| Cn1nc(C(F)(F)F)cc1-c1ccc(OCc2ccc(Cl)cc2)c(-c2cccc(F)c2)c1O [NUCC-0226498] | 67.8 | 4.8 | 40.9 |  |  |  |
| Cn1nc(C(F)(F)F)cc1-c1ccc(NC(c2ccccc2)c2ccccc2)c(-c2ccc(Cl)c(C(F)(F)F)c2)c1O [NUCC-0226502] | 122 | 1.4 | 14.1 |  |  |  |
| Cn1nc(C(F)(F)F)cc1-c1ccc(N(CCCOCCC(=O)NCCOCCOCCOCCNc2cccc3c2C(=O)N(C2CCC(=O)NC2=O)C3=O)C(=O)c2ccc(Cl)c(C(F)(F)F)c2)cc1O (centres unmarked) [NUCC-0226289] | 120 | 7 | 7.4 |  |  |  |
| C[C@H](Oc1ccc(-c2cc(C(F)(F)F)nn2C)c(O)c1-c1ccc(Cl)c(C(F)(F)F)c1)c1ccccc1 [NUCC-0226434] | 20 | 9.4 | 4.3 |  |  |  |
| Cn1nc(C(F)(F)F)cc1-c1ccc(N(CCCOCCC(=O)NCCCCCCOc2cccc3c2C(=O)N(C2CCC(=O)NC2=O)C3=O)C(=O)c2ccc(Cl)c(C(F)(F)F)c2)cc1O (centres unmarked) [NUCC-0226229] | 56.4 | 16.4 | 15.6 |  |  |  |
| Cc1ncsc1-c1ccc(CNC(=O)[C@@H]2C[C@@H](O)CC2C(=O)[C@@H](NC(=O)COCCNC(=O)CCOCCCN(C(=O)c2ccc(Cl)c(C(F)(F)F)c2)c2ccc(-c3cc(C(F)(F)F)nn3C)c(O)c2)C(C)(C)C)cc1 (some centres unmarked) [NUCC-0226228] | 38.1 | 23.1 | 6 |  |  |  |
| Cn1nc(C(F)(F)F)cc1-c1ccc(OCc2ccc(Cl)cc2)c(-c2ccc(F)cc2)c1O [NUCC-0226503] | 129 | 3 |  |  |  |  |
| Cc1ncsc1-c1ccc(CNC(=O)[C@@H]2C[C@@H](O)CN2C(=O)[C@@H](NC(=O)C2(F)CC2)C(C)(C)C)c(OCCOCCOCCOCCOCCCCCOc2ccc(-c3cc(C(F)(F)F)nn3C)c(O)c2-c2ccc(Cl)c(C(F)(F)F)c2)c1 [NUCC-0226221] | 85.9 |  |  |  |  |  |
| CC(C)n1nc(C(F)(F)F)cc1-c1ccc(OCc2ccc(Cl)cc2)c(-c2ccc(Cl)c(C(F)(F)F)c2)c1O [NUCC-0226657] | 56.6 | 7.7 | 7.51 |  |  |  |

| Compound | remaining activity at 10 µM (MYC; PC-3, 24 h, PC3, 24 h) [%] | fold induction at 10 µM (ATF4) | IC50 (PC3 cells) [µM] | remaining activity at 10 µM (MYC; PC-3, PC3, 24 h) [%] | Relative MYC protein at 10 μM (%, PC3 24 h) (MYC) [%] | Relative ATF4 protein at 10 μM (fold change, PC3 24 h) (ATF4) [fold change] |
| --- | --- | --- | --- | --- | --- | --- |
| Cn1nc(C(F)(F)F)cc1-c1ccc(N(CCCOCCC(=O)NCCCCNC(=O)COc2cccc3c2C(=O)N(C2CCC(=O)NC2=O)C3=O)C(=O)c2ccc(Cl)c(C(F)(F)F)c2)cc1O (centres unmarked) [NUCC-0226230] | 105 | 1.9 |  |  |  |  |
| Cc1ncsc1-c1ccc(CNC(=O)[C@@H]2C[C@@H](O)CN2C(=O)[C@@H](NC(=O)C2(F)CC2)C(C)(C)C)c(OCCOCCOCCOCCCCCOc2ccc(-c3cc(C(F)(F)F)nn3C)c(O)c2-c2ccc(Cl)c(C(F)(F)F)c2)c1 [NUCC-0226220] | 90.1 |  |  |  |  |  |
| CC(C)Cc1ccc(COc2ccc(-c3cc(C(F)(F)F)nn3C)c(O)c2-c2ccc(Cl)c(C(F)(F)F)c2)cc1 [NUCC-0226305] | 52.4 | 2.9 | 8.4 |  |  |  |
| COCCOCCCN(C(=O)c1ccc(C(F)(F)F)c(Cl)c1)c1ccc(-c2cc(C(F)(F)F)nn2C)c(O)c1 [NUCC-0226268] | 52.9 | 5.4 |  |  |  |  |
| Cc1ncsc1-c1ccc(CNC(=O)[C@@H]2C[C@@H](O)CC2C(=O)[C@@H](NCCOCCOCCOCCCCCOc2ccc(-c3cc(C(F)(F)F)nn3C)c(O)c2-c2ccc(Cl)c(C(F)(F)F)c2)C(C)(C)C)cc1 (some centres unmarked) [NUCC-0226266] | 91.8 | 1.7 |  |  |  |  |
| Cn1nncc1-c1ccc(OCc2ccc(Cl)cc2)c(-c2ccc(Cl)c(C(F)(F)F)c2)c1O [NUCC-0226659] | 90.3 | 1.5 |  |  |  |  |
| Cc1ncsc1-c1ccc(CNC(=O)[C@@H]2C[C@@H](O)CN2C(=O)[C@@H](NC(=O)C2(F)CC2)C(C)(C)C)c(OCCOCCOc2ccc(COc3ccc(-c4cc(C(F)(F)F)nn4C)c(O)c3-c3ccc(Cl)c(C(F)(F)F)c3)cc2)c1 [NUCC-0226277] | 97.6 | 1.6 |  |  |  |  |
| Cn1nc(C(F)(F)F)cc1-c1ccc(OCCCOCCC(=O)NCCOCCOCCNc2cccc3c2C(=O)N(C2CCC(=O)NC2=O)C3=O)c(-c2ccc(Cl)c(C(F)(F)F)c2)c1O (centres unmarked) [NUCC-0226304] | 170 | 4.6 |  |  |  |  |
| CC(=O)Oc1c(-c2cc(C(F)(F)F)nn2C)ccc(OCc2ccccc2)c1-c1ccc(Cl)c(C(F)(F)F)c1 [NUCC-0226258] | 56.4 | 5.8 |  |  |  |  |
| CC(=O)Oc1c(-c2cc(C(F)(F)F)nn2C)ccc(OCc2ccc(OCCOCCOS(=O)(=O)c3ccc(C)cc3)cc2)c1-c1ccc(Cl)c(C(F)(F)F)c1 [NUCC-0226263] | 113 | 0.7 |  |  |  |  |
| Cn1nc(C(F)(F)F)cc1-c1ccc(OCCCCCNC(=O)[C@H](CCCN=C(NC(=O)OC(C)(C)C)NC(=O)OC(C)(C)C)NC(=O)OC(C)(C)C)c(-c2ccc(Cl)c(C(F)(F)F)c2)c1O [NUCC-0226219] | 90.6 |  |  |  |  |  |
| Cn1nc(C(F)(F)F)cc1-c1ccc(O)c(-c2ccc(Cl)c(C(F)(F)F)c2)c1O [NUCC-0226259] | 52 | 3.3 |  |  |  |  |
| CC(C)Cc1ccc(CN(C(=O)c2ccc(Cl)c(C(F)(F)F)c2)c2ccc(-c3cc(C(F)(F)F)nn3C)c(O)c2)cc1 [NUCC-0226280] | 45.2 | 10.3 |  |  |  |  |
| Cn1nc(C(F)(F)F)cc1-c1ccc(OCc2ccccc2)c(-c2ccc(Cl)c(C(F)(F)F)c2)c1O [NUCC-0226260] |  | 4.6 |  | 41.5 |  |  |
| O=c1oc2c(-c3ccc(Cl)c(C(F)(F)F)c3)c(O)ccc2c2cc(C(F)(F)F)nn12 [NUCC-0226261] | 93.1 | 4.4 |  |  |  |  |
| Cn1nncc1-c1ccc(OCc2ccc(Cl)cc2)c(-c2ccc(Cl)c(C(F)(F)F)c2)c1O [NUCC-0226656] |  |  |  |  | 103 | 1.5 |
| Cn1nc(C(F)(F)F)cc1-c1ccc(OCc2ccc(OCCOCCOc3cccc4c3C(=O)N(C3CCC(=O)NC3=O)C4=O)cc2)c(-c2ccc(Cl)c(C(F)(F)F)c2)c1O (centres unmarked) [NUCC-0226279] | 85.1 | 2.1 |  |  |  |  |
| Cc1ncsc1-c1ccc(CNC(=O)[C@@H]2C[C@@H](O)CN2C(=O)[C@@H](NCCOCCOc2ccc(COc3ccc(-c4cc(C(F)(F)F)nn4C)c(O)c3-c3ccc(Cl)c(C(F)(F)F)c3)cc2)C(C)(C)C)cc1 [NUCC-0226276] | 70 | 0.4 |  |  |  |  |
| Cc1ncsc1-c1ccc(CNC(=O)[C@@H]2C[C@@H](O)CN2C(=O)[C@@H](NC(=O)C2(F)CC2)C(C)(C)C)c(OCCOCCOCCCCCOc2ccc(-c3cc(C(F)(F)F)nn3C)c(O)c2-c2ccc(Cl)c(C(F)(F)F)c2)c1 [NUCC-0226264] | 102 | 1.3 |  |  |  |  |

— patent publication US20260035360A1, “INHIBITORS OF MYC AND USES THEREOF” (Northwestern University, priority 2022, published 2026)
